Entries after “also recorded” stand apart in the source; their conditions may differ. Counter-ions that a name gives are not always drawn.
Test system: DNA replication of sperm chromatin in Xenopus egg extracts
Test: In vitro DNA replication assay in Xenopus S-phase egg extracts ([α-32P]dGTP incorporation)
Type: biochemical
Details: 10, 50, 150 and 300 µM
Procedure: Xenopus egg extracts were prepared according to the method of Murray. Replication of sperm chromatin in S-phase egg extracts was monitored as previously described. Compounds identified by HTS were added to replication reactions immediately prior to addition of [α-^32P]dGTP (Perkin Elmer BLU514H250UC).
To determine whether the four remaining confirmed HTS hits affected DNA replication, in vitro replication assays were performed using Xenopus S-phase egg extracts incubated with sperm chromatin [25, 34]. DNA replication was measured in the presence of bronopol, fumarprotocetraric acid, iriginol and suramin or DMSO by the incorporation of [α-^32P]dGTP. […] For this reason, further studies focused on suramin alone.
Figure 1. Suramin inhibits DNA replication in an in vitro Xenopus replication assay. HTS hits were evaluated for inhibition of [α-^32P]dGTP incorporation into DNA using a cell-free extract prepared from Xenopus eggs at increasing concentrations (10, 50, 150 and 300 µM indicated by black triangle from right to left). No chemical (–) and DMSO were used as negative controls for replication inhibition (far left and far right lanes).

## Cc1ccc(C(=O)Nc2ccc(S(=O)(=O)O)c3cc(S(=O)(=O)O)cc(S(=O)(=O)O)c23)cc1NC(=O)c1cccc(NC(=O)Nc2cccc(C(=O)Nc3cc(C(=O)Nc4ccc(S(=O)(=O)O)c5cc(S(=O)(=O)O)cc(S(=O)(=O)O)c45)ccc3C)c2)c1 [suramin, suramin sodium salt]
  DNA replication, [α-32P]dGTP incorporation (result in words): dose-dependent decrease in replication products; also recorded: dose-dependent decrease in DNA replication
